From patent US20260250320A1, “LIPIDATED PEPTIDE INHIBITORS OF INTERLEUKIN-23 RECEPTOR” (Janssen Pharmaceutica NV, priority 2023, published 2026)
*1 amine or outer side, *2 acyl side, *3 side chain or, on linkers, in order; H or OH if unused. Where a SMILES comes first, the peptide text is derived from it. Bridges are numbered along the chain shown (N, C = ends). Side-chain parts run from the residue outwards. [ ]: non-standard residue; d: D form. The star is where a group is joined. X11 = CN(CC(N)=O)C(=O)[C@H](Cc1cccnc1)NC(O)[C@H](CC(N)=O)N*; Me3N+(CH2)2O(CH2)2O(CH2)2CO = C[N+](C)(C)CCOCCOCCC(=O)*; PEG12 = NCCOCCOCCOCCOCCOCCOCCOCCOCCOCCOCCOCCOCCC(=O)O; Trp(7-Me) = Cc1cccc2c(C[C@H](N)C(=O)O)c[nH]c12; X37 = Cc1cccc2c1CC=C2C[C@H](N[*:1])C(=O)[*:2]; C18 diacid = O=C(O)CCCCCCCCCCCCCCCCC(=O)*; γGlu = O=C(O)[C@H](CCC(=O)[*:2])N[*:1]; 2Nal = N[C@@H](Cc1ccc2ccccc2c1)C(=O)O; AEF = NCCOc1ccc(C[C@H](N)C(=O)O)cc1; X2 = C[N+](C)(C)C[C@@H](CC(=O)O)N*; 3Pal = N[C@@H](Cc1cccnc1)C(=O)O; Lys(Me) = CNCCCC[C@H](N)C(=O)O; Pen = CC(C)(S)[C@H](N)C(=O)O; Suc = O=C(CCC(=O)[*:2])[*:1]; Thp = NC1(C(=O)O)CCOCC1; X1 = C[N+](C)(C)CCCCC*; AEEA = NCCOCCOCC(=O)O; Sar = CNCC(=O)O

Columns and labels:
[1] = test system: IL-23-stimulated phosphorylated STAT3 in peripheral blood mononuclear cells (PBMCs); assay: PBMC pSTAT3 Assay; assay type: cell-based; settings: PBMCs from healthy donors; 30 min preincubation with peptide; IL-23 5 ng/mL for 30 min; phospho-STAT3 by MSD
How it was run: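 Phospho-STAT3 quantified by Meso Scale assay in lysates of PBMCs exposed to IL-23 (5 ng/mL, 30 min, 37 °C) after 30 min peptide pretreatment. Cells were cryopreserved donor PBMCs activated 4 days with anti-CD3 plus IL-1β (100 ng/mL) and starved ~4 h; IC50 reported.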

IL-23R = target: T1, IL-23R (Homo sapiens, UniProt Q5VWK5); assay: IL23R Reporter Assay; assay type: cell-based; settings: HEK293 cells containing IL-23R, IL-12Rβ1 and STAT-inducible firefly luciferase reporter; 10 ng/mL IL-23 (EC90); 5 h
T1 construct: HEK293 cells containing IL-23R, IL-12Rβ1 and a firefly luciferase reporter gene driven by a STAT-inducible promoter (Promega); host or cells: HEK293
T1 sequence (Q5VWK5 24-629): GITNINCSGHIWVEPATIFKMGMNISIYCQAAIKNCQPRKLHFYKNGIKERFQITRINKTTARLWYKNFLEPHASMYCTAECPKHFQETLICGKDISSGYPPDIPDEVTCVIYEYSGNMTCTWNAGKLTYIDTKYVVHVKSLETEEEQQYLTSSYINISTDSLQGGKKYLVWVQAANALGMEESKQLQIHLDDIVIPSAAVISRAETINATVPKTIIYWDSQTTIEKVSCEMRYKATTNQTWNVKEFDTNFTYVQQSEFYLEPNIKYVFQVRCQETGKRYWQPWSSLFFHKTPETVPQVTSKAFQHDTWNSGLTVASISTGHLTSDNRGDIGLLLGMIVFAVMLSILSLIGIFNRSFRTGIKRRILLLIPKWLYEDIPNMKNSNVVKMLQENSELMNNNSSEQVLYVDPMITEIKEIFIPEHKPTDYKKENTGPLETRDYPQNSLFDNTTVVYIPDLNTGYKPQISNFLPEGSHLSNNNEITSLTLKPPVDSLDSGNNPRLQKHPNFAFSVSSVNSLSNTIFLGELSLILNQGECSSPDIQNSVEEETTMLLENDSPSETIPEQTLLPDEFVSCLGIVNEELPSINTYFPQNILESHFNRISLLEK
How it was run: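 IC50 values were fitted with a 4-parameter Hill equation to luciferase signal, scaled between IL-23-only wells (0% inhibition) and 30 μM reference inhibitor (100%). The readout was a STAT-inducible reporter in IL-23R/IL-12Rβ1 HEK293 cells, stimulated with added 10 ng/mL IL-23 (EC90) for 5 h at 37° C and developed with BioGlo.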

| SMILES | IC50 [1] [nM] | IC50 (IL-23R) [nM] |
| --- | --- | --- |
| CC(=O)NCCCC[C@@H]1NC(=O)[C@H](Cc2c[nH]c3c(C)cccc23)NC(=O)[C@H]([C@@H](C)O)NC(=O)[C@H](CC(N)=O)NC(=O)[C@@H](NC(C)=O)C(C)(C)SSC(C)(C)[C@@H](C(=O)N[C@@H](Cc2ccc(OCCN)cc2)C(=O)N[C@@H](Cc2ccc3ccccc3c2)C(=O)NC2(C(=O)N[C@@H](CCCCNC(=O)CCC(=O)N[C@H](CC(=O)O)C[N+](C)(C)C)C(=O)N[C@@H](CC(N)=O)C(=O)N[C@@H](Cc3cccnc3)C(=O)N(C)[C@@H](CCCCNC(=O)COCCOCCNC(=O)COCCOCCNC(=O)CC[C@H](NC(=O)CCCCCCCCCCCCCCCCC(=O)O)C(=O)O)C(N)=O)CCOCC2)NC1=O [compound 28, MeCO-Pen(3)-N-T-7MeW-K(Ac)-Pen(3)-AEF-2Nal-THP-K(d)-N-3Pya-NMeK(PEG2PEG2gEC18OH)-CONH2] | < 0.5 | 50 to 500 |
| CC(=O)NCCCC[C@@H]1NC(=O)[C@H](Cc2c[nH]c3c(C)cccc23)NC(=O)[C@H]([C@@H](C)O)NC(=O)[C@H](CC(N)=O)NC(=O)[C@@H](NC(=O)[C@@H](CCCNC(=N)N)NC(=O)COCCOCCNC(=O)COCCOCCNC(=O)CC[C@H](NC(=O)CCCCCCCCCCCCCCCCC(=O)O)C(=O)O)C(C)(C)SSC(C)(C)[C@@H](C(=O)N[C@@H](Cc2ccc(OCCN)cc2)C(=O)N[C@@H](Cc2ccc3ccccc3c2)C(=O)NC2(C(=O)N[C@@H](CCCCNC(=O)CCC(=O)N[C@H](CC(=O)O)C[N+](C)(C)C)C(=O)N[C@@H](CC(N)=O)C(O)N[C@@H](Cc3cccnc3)C(=O)N(C)CC(N)=O)CCOCC2)NC1=O (stereo partly drawn) [compound 45, HOC18gEPEG2PEG2CO-r-Pen(3)-N-T-7MeW-K(Ac)-Pen(3)-AEF-2Nal-THP-K(d)-N-3Pya-Sar-CONH2] ({C18 diacid-γGlu-AEEA-AEEA}-[dR][Pen]NT[Trp(7-Me)]K(Ac)[Pen][AEF][2Nal][Thp]K([Suc-X2])-X11; disulfide 2-7) | < 0.5 | 50 to 500 |
| C=C(O)[C@H](CCC(=O)NCCOCCOCC(=O)NCCOCCOCC(=O)NCCCC[C@H](NC(=O)CN(C)C(=O)[C@H](Cc1cccnc1)NC(=O)[C@H](CC(N)=O)NC(=O)[C@H](CCCCNC(=O)CCC(=O)N[C@H](CC(=O)O)C[N+](C)(C)C)NC(=O)C1(NC(=O)[C@H](Cc2ccc3ccccc3c2)NC(=O)[C@H](Cc2ccc(OCCN)cc2)NC(=O)[C@H]2NC(=O)[C@H](CCCCNC(C)=O)NC(=O)[C@H](Cc3c[nH]c4c(C)cccc34)NC(=O)[C@H]([C@@H](C)O)NC(=O)[C@H](CC(N)=O)NC(=O)[C@@H](NC(C)=O)C(C)(C)SSC2(C)C)CCOCC1)C(N)=O)NC(=O)CCCCCCCCCCCCCCCCC(=O)O [compound 50, MeCO-Pen(3)-N-T-7MeW-K(Ac)-Pen(3)-AEF-2Nal-THP-K(d)-N-3Pya-Sar-K(PEG2PEG2gEC18OH)-CONH2] | < 0.5 | 50 to 500 |
| CC(=O)N(C)CCCC[C@@H]1NC(=O)[C@H](Cc2c[nH]c3c(C)cccc23)NC(=O)[C@H]([C@@H](C)O)NC(=O)[C@H](CC(=O)N(C)C)NC(=O)[C@@H](NC(=O)CCOCCOCC[N+](C)(C)C)C(C)(C)SSC(C)(C)[C@@H](C(=O)N[C@@H](Cc2ccc(OCCCCC[N+](C)(C)C)cc2)C(=O)N[C@@H](Cc2ccc3ccccc3c2)C(=O)NC2(C(=O)N[C@@H](CCCCNC(=O)COCCOCCNC(=O)COCCOCCNC(=O)CC[C@H](NC(=O)CCCCCCCCCCCCCCCCC(=O)O)C(=O)O)C(=O)N[C@@H](CC(N)=O)C(=O)N[C@@H](Cc3ccccc3)C(=O)N(C)CC(=O)N(C)C)CCOCC2)NC1=O [compound 120, cPEG3aCO-Pen(3)-N(N(Me)2)-T-7MeW-K(NMeAc)-Pen(3)-TMAPF-2Nal-THP-K(PEG2PEG2gEC18OH)-N-3Pya-Sar-CON(Me)2] ({Me3N+(CH2)2O(CH2)2O(CH2)2CO}-[Pen]D(NMe2)T[Trp(7-Me)][Lys(Me)](Ac)[Pen]Y(X1)[2Nal][Thp]K([AEEA-AEEA-γGlu-C18 diacid])NF[Sar]-NMe2; disulfide 1-6) | < 0.5 | < 50 |
| CC(=O)NCCCC[C@@H]1NC(=O)[C@H](Cc2c[nH]c3c(C)cccc23)NC(=O)[C@H]([C@@H](C)O)NC(=O)[C@H](CC(N)=O)NC(=O)[C@@H](NC(=O)[C@H](CCCCNC(=O)COCCOCCNC(=O)COCCOCCNC(=O)CC[C@H](NC(=O)CCCCCCCCCCCCCCCCC(=O)O)C(=O)O)CCCNC(=N)N)C(C)(C)SSC(C)(C)[C@@H](C(=O)N[C@@H](Cc2ccc(OCCN)cc2)C(=O)N[C@@H](Cc2ccc3ccccc3c2)C(=O)NC2(C(=O)N[C@@H](CCCCNC(=O)CCC(=O)N[C@H](CC(=O)O)C[N+](C)(C)C)C(=O)N[C@@H](CC(N)=O)C(=O)N[C@@H](Cc3cccnc3)C(=O)N(C)CC(N)=O)CCOCC2)NC1=O [compound 32, HOC18gEPEG2PEG2CO-r-Pen(3)-N-T-7MeW-K(Ac)-Pen(3)-AEF(d)-2Nal-THP-E-N-3Pya-Sar-CONH2] | < 0.5 | 50 to 500 |
| CC(=O)NCCCC[C@@H]1NC(=O)[C@H](Cc2c[nH]c3c(C)cccc23)NC(=O)[C@H]([C@@H](C)O)NC(=O)[C@H](CC(N)=O)NC(=O)[C@@H](NC(=O)CCOCCOCC[N+](C)(C)C)C(C)(C)SSC(C)(C)[C@@H](C(=O)N[C@@H](Cc2ccc(OCCCCC[N+](C)(C)C)cc2)C(=O)N[C@@H](Cc2ccc3ccccc3c2)C(=O)NC2(C(=O)N[C@@H](CCCCNC(=O)COCCOCCNC(=O)COCCOCCNC(=O)CC[C@H](NC(=O)CCCCCCCCCCCCCCCCCCC(=O)O)C(=O)O)C(=O)N[C@@H](N)C(=O)N[C@@H](Cc3ccccn3)C(=O)N(C)CC(N)=O)CCOCC2)NC1=O [compound 126, cPEG3aCO-Pen(3)-N(N(Me)2)-T-7MeW-K(NMeAc)-Pen(3)-TMAPF-2Nal-THP-K(PEG2PEG2gEC20OH)-N-3Pya-Sar-CON(Me)2] | < 0.5 | < 50 |
| CC(=O)N(C)CCCC[C@H](NC(=O)C1(NC(=O)[C@H](Cc2ccc3ccccc3c2)NC(=O)[C@H](Cc2ccc(OCCCCC[N+](C)(C)C)cc2)NC(=O)[C@H]2NC(=O)[C@H](CCCCNC(=O)CCOCCOCCOCCOCCOCCOCCOCCOCCOCCOCCOCCOCCNC(=O)CC[C@H](NC(=O)CCCCCCCCCCCCCCCCC(=O)O)C(=O)O)NC(=O)[C@H](CC3=CCc4c(C)cccc43)NC(=O)[C@H]([C@@H](C)O)NC(=O)[C@H](CC(=O)N(C)C)NC(=O)[C@@H](NC(=O)CCOCCOCC[N+](C)(C)C)C(C)(C)SSC2(C)C)CCOCC1)C(=O)N[C@@H](CC(N)=O)C(=O)N[C@@H](Cc1cccnc1)C(=O)N(C)CC(=O)N(C)C [compound 124, cPEG3aCO-Pen(3)-N(N(Me)2)-T-7MeW-K(PEG12gEC18OH)-Pen(3)-TMAPF-2Nal-THP-K(NMeAc)-N-3Pya-Sar-CON(Me)2] ({Me3N+(CH2)2O(CH2)2O(CH2)2CO}-[Pen]D(NMe2)T[X37]K([PEG12-γGlu-C18 diacid])[Pen]Y(X1)[2Nal][Thp][Lys(Me)](Ac)N[3Pal][Sar]-NMe2; disulfide 1-6) | < 0.5 | < 50 |
| CC(=O)N(C)CCCC[C@@H]1NC(=O)[C@H](Cc2c[nH]c3ccccc23)NC(=O)[C@H]([C@@H](C)O)NC(=O)[C@H](CCCCNC(=O)COCCOCCNC(=O)COCCOCCNC(=O)CC[C@H](NC(=O)CCCCCCCCCCCCCCCCC(=O)O)C(=O)O)NC(=O)[C@@H](NC(=O)CCOCCOCC[N+](C)(C)C)C(C)(C)SSC(C)(C)[C@@H](C(=O)N[C@@H](Cc2ccc(OCCCCC[N+](C)(C)C)cc2)C(=O)N[C@@H](Cc2ccc3ccccc3c2)C(=O)NC2(C(=O)N[C@@H](CCCCN(C)C(C)=O)C(=O)N[C@@H](CC(N)=O)C(=O)N[C@@H](Cc3cccnc3)C(=O)N(C)CC(=O)N(C)C)CCOCC2)NC1=O [compound 122, cPEG3aCO-Pen(3)-K(PEG2PEG2gEC18OH)-T-7MeW-K(NMeAc)-Pen(3)-TMAPF-2Nal-THF-K(NMeAc)-N-3Pya-Sar-CON(Me)2] ({Me3N+(CH2)2O(CH2)2O(CH2)2CO}-[Pen]K([AEEA-AEEA-γGlu-C18 diacid])TW[Lys(Me)](Ac)[Pen]Y(X1)[2Nal][Thp][Lys(Me)](Ac)N[3Pal][Sar]-NMe2; disulfide 1-6) | < 0.5 | 50 to 500 |
